Laboratory results taken from US5242942A, “Anticonvulsant fructopyranose cyclic sulfites and sulfates” (McNeilab, Inc., priority 1992, dated 1993).

How the values were obtained:
rat diuresis study = type: in vivo, rat (male Wistar); details: 6.3 mg/kg PO, average of five animals
From the text: Evidence for the inhibition of carbonic anhydrase by compounds of the formula (I) can also be obtained by a diuresis study, such as described by A. Weiner in Goodman and Gilman's The Pharmacological Basis of Therapeutics, 8th ed.; Goodman Gilman, A.; Rall, T. W.; Nies, A. S.; Taylor, P., Eds.; Pergamon Press: New York, 1990; pp 716-718. An increase in urine akalinity accompanied with an increase in water intake and urine output provides an indirect indication of carbonic anhydrase inhibition activity. Male Wistar rats having a weight of 250-300 g were dosed orally (PO) and housed in cages that allowed for the quantitative measure of fluid intake and urine output. Water intake and urine output were measured at 24 hours versus control, whereas urine pH, obtained via pH meter, was measured at 4 and 24 hours versus control. The results of this study, which are the average of five animals, are reported below in Table III. […] Such data is also an indication of the usefulness of the compounds of formula (I) as diuretics in the treatment of hypertension, congestive heart failure and other types of edema. The determination of suitable dosages for such compounds for the treatment of hypertension and congestive heart failure and other types of edema is within the skill of the art.

carbonic anhydrase = carbonic anhydrase inhibition, 18O-exchange mass spectrometry, disrupted hepatocytes; type: biochemical; details: 250 μM, disrupted male rat hepatocytes, 37° C., pH 7.4, 25 mM aqueous NaHCO3
Protocol: Compounds of formula (I) are also inhibitors of carbonic anhydrase, and as such, are useful in the treatment of glaucoma. Such activity may be determined by mass spectrometry using the ^18 O-exchange technique described by Dodgson and Forster in J. Appl. Physiol. 1983, 55, 1293. Specifically, this assay was conducted by first killing the male rats and then removing their livers. Their livers were placed in a cold physiological saline solution. The liver tissue was then minced with scissors and shaken in a protolytic enzyme solution to promote disassociation of the hepatocytes. The dissociated hepatocytes were then washed in a cold saline solution and used for determination of carbonic anhydrase activity.
[…] The continuous readout of the mass 44 peak gives a continuous record of the constancy of the pH of the reaction medium since the height of the mass 44 peak is very sensitive to pH. The pH of the medium was read from the pH meter and used to calibrate the mass 44 peaks at regular intervals.
An 8 mL glass chamber, with openings for a pH electrode and sample insertion, was used for continuous mass spectrophotometric measurement of C^16 O^16 O (mass 44) and C^16 O^18 O (mass 46) dissolved in aqueous bicarbonate buffer. […] The pH was constantly monitored by a combination glass pH electrode (Radiometer model gK 2641C). […]

Total Acid Output = assay: pylorus-ligated rat test, gastric antisecretory activity; type: in vivo, rat (male Charles River Sprague-Dawley derived); details: PO, read-out: ED50, inhibition of Total Acid Output
Protocol: The gastric antisecretory activity of the compounds shown in Table II was determined by the pylorus-ligated rat test described by Shay et al. in Gastroenterol. 1954, 26, 906. In this method, male Charles River Sprague-Dawley derived rats weighing 150-300 grams were deprived of food but not water for 18-24 hours prior to use. Water was withheld during the experiment, however. The rats were weighed, lightly anesthetized with ether and the pylorus ligated according to the method of Shay et al., supra. The treatment or vehicle control was then administered intraperitoneally (IP) or orally (PO). When administered by the IP route, the administration was done 30 minutes before ligation. When administered by the PO route, the administration was done prior to ligation (about 1/2 to 3 hours before). Rats were housed two per cage and sacrificed with carbon dioxide 3 hours after ligation. Their stomachs were removed, rinsed, and contents emptied into a graduated centrifuge tube. The tubes were centrifuged, the volume of gastric juice was recorded, and any samples obviously contaminated by feces, food or blood were eliminated. A 1 mL aliquot of gastric juice was titrated with 0.1N NaOH to a pH of 7.0-7.4. The volume of gastric juice secreted, the acid concentration, and the product of the volume times the concentration, i.e. the total amount of acid secreted, were measured. The total acid output was calculated by multiplying the volume of gastric juices collected times the hydrogen ion concentration (amount of NaOH added to a sample to reach a pH of 7.0-7.4) and dividing that value by 10. The mean value of the total acid output for a control group of rats was then subtracted from the mean value of the total acid output for the group of rats tested at the same dose. That value was then divided by the mean value of total acid output for the control group and the resulting number was multiplied by 100 to provide a Percent Inhibition value, which values are reported in Table II. The […] was determined statistically as the dose at which a 50% inhibition would be realized.

CC1(C)O[C@H]2[C@@H]3OS(=O)(=O)O[C@@H]3CO[C@@]2(COS(N)(=O)=O)O1 [Example 1, 2,3-O-(1-Methylethylidene)-4,5-O-sulfonyl-β-D-fructopyranose Sulfamate]
Urine pH (rat diuresis study; 4 hours, control 6.98): 8.99 | Urine pH (rat diuresis study; 24 hours, control 6.43): 7.03 | Water Intake (rat diuresis study; 24 hours, control 15.0): 24.0 mL | Urine Output (rat diuresis study; 24 hours, control 17.6): 28.3 mL | inhibition of all hepatocyte carbonic anhydrase (carbonic anhydrase): Maximal inhibition | ED50 (Total Acid Output): 20 mg/kg
